Tests used:
CREB signaling in VMH = experiment: CREB phosphorylation in hypothalamus (VMH) after injection; type: in vivo, mouse
Method: FIG. 28. (A) Western blot analysis of HTR2C and p-CREB in hypothalamus tissue from 12-week-old mice after PGE2 or vehicle injection at different periods. […] DAPI stains nuclei blue. Scale bar, 50 μm.
The femurs were collected and fixed in 4% paraformaldehyde overnight and decalcified by using 10% EDTA (pH, 7.4) (Amresco, 0105) for 21 days. The samples were then dehydrated with 30% sucrose for 24 h and embedded in paraffin or optimal cutting temperature compound (Sakura Finetek). 4-μm-thick coronal-oriented sections of the femur were prepared for hematoxylin and eosin staining. The femurs were fixed for 4 h with 4% paraformaldehyde at 4° C. and then decalcified at 4° C. using 0.5M EDTA (pH, 7.4) for 24 h with constant shaking. The samples were dehydrated in 20% sucrose and 2% polyvinylpyrrolidone (PVP) solution for 24 h and embedded in 8% gelatin (Sigma-Aldrich, G1890) in the presence of 20% sucrose and 2% PVP. Forty-μm-thick coronal-oriented sections of the femurs were obtained.

DRG neurons = experiment: Calcium imaging of isolated DRG neurons; conditions: DRG neurons pre-incubated with 10 μM PGE2 for 5 min, relative to vehicle-treated neurons
[1] = test system: EP4 in the sensory nerves; experiment: PGE2-induced bone formation, trichrome and calcein double labeling; type: in vivo, mouse; conditions: EP4Avil−/− mice; 3 mg per kg per day PGE2 for 3 consecutive days
Method: (§1) FIG. 9. […] DAPI stains nuclei blue. […] Calcein was injected 5 days and 1 day before sacrifice. Representative images of calcein double labeling of femoral trabecular bone with quantification of mineral apposition rate (MAR) and bone formation rate (BFR). Scale bar, 20 μm. […] (Student t-test, except j with ANOVA)
(§2) As EP4 expression is also known to express in osteoblasts, osteoblastic cell-specific knockout EP4 mice were generated by crossing […] mice with osteocalcin-cre (OC-cre) mice (FIG. 12A).
(§3) A double-labeling procedure was performed to measure dynamic bone formation. Briefly, 0.1% calcein (Sigma-Aldrich, C0875) was injected in phosphate-buffered saline at a concentration of 10mg per kg into the mice subcutaneously 7 days and 1 day before sacrifice. The double-labeling images of undecalcified bone slices were captured using a fluorescence microscope. Trabecular bone formation in four randomly selected visual fields was analyzed in the distal metaphyseal area of the femur.

[2] = molecular target: EP4 in the sensory nerves (Mus musculus, UniProt P32240); experiment: as above; type: in vivo; conditions: wild-type mice; 3 mg per kg per day PGE2 for 3 consecutive days
Sequence of EP4 in the sensory nerves (Mus musculus, UniProt P32240) (P32240 whole entry): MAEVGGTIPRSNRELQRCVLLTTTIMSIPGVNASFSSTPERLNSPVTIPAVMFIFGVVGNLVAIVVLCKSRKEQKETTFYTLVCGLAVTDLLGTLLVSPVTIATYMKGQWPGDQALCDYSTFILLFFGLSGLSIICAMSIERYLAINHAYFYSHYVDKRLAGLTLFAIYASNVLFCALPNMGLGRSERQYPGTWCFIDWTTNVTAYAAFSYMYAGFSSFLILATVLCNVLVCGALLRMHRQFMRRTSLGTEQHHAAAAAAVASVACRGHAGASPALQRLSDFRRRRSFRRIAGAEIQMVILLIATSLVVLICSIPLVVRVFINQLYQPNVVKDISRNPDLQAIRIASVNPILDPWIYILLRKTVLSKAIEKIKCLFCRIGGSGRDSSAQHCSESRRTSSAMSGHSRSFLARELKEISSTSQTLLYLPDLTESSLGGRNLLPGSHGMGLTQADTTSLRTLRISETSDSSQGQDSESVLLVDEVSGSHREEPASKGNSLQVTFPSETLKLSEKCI
Method: as §1, §2, §3

15-PGDH [3] = molecular target: T1, 15-PGDH (Mus musculus, UniProt Q8VCC1); experiment: Bone regeneration after femoral bone marrow ablation; type: in vivo
T1 sequence (Q8VCC1 1-269): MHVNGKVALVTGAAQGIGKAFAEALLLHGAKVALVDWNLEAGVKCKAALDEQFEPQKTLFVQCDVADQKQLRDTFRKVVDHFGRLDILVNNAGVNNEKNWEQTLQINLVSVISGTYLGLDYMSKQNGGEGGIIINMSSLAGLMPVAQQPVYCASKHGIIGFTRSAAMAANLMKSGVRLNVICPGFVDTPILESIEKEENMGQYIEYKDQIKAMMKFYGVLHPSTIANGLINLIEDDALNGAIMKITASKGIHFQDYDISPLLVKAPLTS
From the text: FIG. 31. […] Scale bar: 1 mm. Selected areas for the measurements of bone volume (BV)/tissue volume (TV) were indicated with a yellow square. b Representative images of hematoxylin-eosin staining, double immunofluorescence analysis of CD31^+ Emcn^+ cells, and immunofluorescence analysis of Leptin receptor (LepR)^+ cells in the regeneration area. Scale bar, 100 μm. c Graphic illustration of this study. When bone density decreases by osteoclast bone resorption, PGE2 secretion by osteoblastic cells increases at bone remodeling sites. PGE2 activates EP4 receptor at sensory nerve to tune down sympathetic tones for osteoblast differentiation at the bone remodeling microenvironment. The sensory nerve controlling process is likely a temporal-spatial precision action. […] (ANOVA)
PGE2 has been reported recently to potentiate regeneration of multiple tissues (see, Zhang, Y. et al. Science 348, aaa2340, doi:10.1126/science.aaa2340 (2015)). To investigate whether PGE2 induces tissue regeneration through sensory nerves, experiments were conducted that assessed whether PGE2 induces bone regeneration. […] However, the regeneration of trabecular bone by SW033291 was obstructed in EP4Avil^−/− mice (FIG. 31A, B). […] Thus, PGE2 stimulates bone regeneration through sensory nerves.
The femurs were harvested from mice, and the soft tissue around the bone was removed, followed by fixation overnight using 4% paraformaldehyde. μCT analyses were performed by using a high-resolution μCT scanner (SkyScan, 1174). The voltage of the scanning procedure was 65 kv with a 153-μA current. The resolution was set to 8.7 μm per pixel. Reconstruction software (NRecon, v1.6, SkyScan), data analysis software (CTAn, v1.9, SkyScan), and 3D model visualization software (CTVol, v2.0, SkyScan) were used to analyze the diaphyseal cortical bone and the metaphyseal trabecular bone parameters of the femurs. Experiments were conducted that created cross-sectional images of the femur to perform 2D analyses of the cortical bone and 3D analyses of the trabecular bone. The region of interest (ROI) of the trabecular bone was drawn beginning from 5% of the femur length proximal to the distal metaphyseal growth plate and extending proximally for another 5% of the total femur length. The trabecular bone volume fraction (BV/TV), trabecular thickness (Tb. Th), trabecular number (Tb. N), and trabecular separation (Tb. Sp) were collected from the 3D analyses data and used to represent the trabecular bone parameters. The cortical bone ROI was drawn beginning from 20% of femur length proximal to distal metaphyseal growth plate and extending proximally to another 10% of the total femur length. […]

15-PGDH [4] = molecular target: T1, 15-PGDH; experiment: Liver regeneration after partial hepatectomy; type: in vivo; conditions: TrkAAvil−/− mice treated with SW033291 relative to WT littermates
From the text: FIG. 32. (A) Double-immunofluorescence images of liver tissue sections from TrkA^wt and TrkAAvil^−/− mice with vehicle or SW033291 treatment using antibodies against and Ki67 (red) and CGRP (green). DAPI stains nuclei blue. Percentages of the Ki67+cells are shown in the right panel. Scale bar, 100 μm.(B) BrdU staining images of liver tissue sections from TrkA^wt and TrkAAvil^−/− mice with vehicle or SW033291 treatment. Scale bar, […]. Percentages of the BrdU+cells are shown in the right panel. […] (ANOVA).
To further investigate whether PGE2 induces regeneration by sensory nerves of tissues other than bone, experiments were conducted that performed partial hepatectomy in TrkAAvil^−/− mice and their WT littermates treated with SW033291 or vehicle.
Partial hepatectomy was used for the liver regeneration model. 10- to 12-week-old […] male mice were anesthetized, as described above. A partial (two-thirds) hepatectomy was performed by resecting the median and left lateral hepatic lobes^54. The remnant livers were harvested after mice sacrifice. SW033291 was dissolved in a vehicle of 10% ethanol, 5% Cremophor EL, and 85% dextrose 5% in water.

[5] = test system: sensory nerves of iDTRAvil mice; conditions: mouse, in vivo

O=C(O)CCC/C=C\C[C@H]1C(=O)C[C@@H](O)[C@@H]1/C=C/[C@@H](O)CCc1ccccc1 [EP1/3 agonist]
phosphorylation of CREB (pCREB level) in VMH (CREB signaling in VMH; C57BL/6 mice, agonist 200 ug per kg, 6 hours, relative to vehicle-treated mice): did not increase

CCCCC[C@H](O)/C=C/[C@H]1[C@H](O)CC(=O)[C@@H]1C/C=C\CCCC(=O)O [PGE2, prostaglandin E2]
activated (illuminated) DRG neurons, calcium imaging (DRG neurons): more illuminated DRG neurons | phosphorylation of CREB in hypothalamus, Western blot time course (CREB signaling in VMH; 12-week-old mice after PGE2 injection): increased gradually | PGE2-induced CREB phosphorylation in VMH, immunostaining (CREB signaling in VMH; EP4Avil−/− mice, 3 mg per kg PGE2, 6 h): abolished | CREB phosphorylation in VMH, immunostaining (CREB signaling in VMH; WT (EP4wt) mice, 3 mg per kg PGE2, 6 h after injection): increased significantly | time of peak phosphorylation of CREB in hypothalamus (CREB signaling in VMH; Western blot, after PGE2 injection): 6 h | bone formation (trichrome, calcein double labeling: MAR, BFR) [1]: abolished | bone formation (trichrome, calcein double labeling: MAR, BFR) [2]: significant bone formation

CCCC[S+]([O-])c1sc2nc(-c3cccs3)cc(-c3ccccc3)c2c1N (stereo not shown) [SW033291]
type H vessels in the regeneration area (15-PGDH [3]; EP4Avil−/− mice with or without injection of SW033291): almost undetectable | regeneration of trabecular bone (15-PGDH [3]; EP4Avil−/− mice, 10 mg per kg per day SW033291): obstructed | type H vessel (CD31hi Endomucinhi) growth in the regeneration area (15-PGDH [3]; EP4wt mice treated with SW033291): significantly increased | trabecular bone regeneration (μCT, HE staining) (15-PGDH [3]; EP4wt mice, 10 mg per kg per day SW033291, relative to vehicle-treated controls): boosted trabecular bone regeneration significantly | liver regeneration rate (BrdU and Ki67 staining) (15-PGDH [4]): decreased significantly

diphtheria toxin [DTX]
Sensory denervation (CGRP+ sensory nerves in femur) [5]: effectively induced | amount of osteoid [5]: significantly decreased | bone formation (calcein double-labeling) [5]: reduced | bone loss (μCT, femur) [5]: Significant bone loss | bone mass in the vertebrae [5]: decreased | mineral apposition rate (calcein double-labeling) [5]: reduced | motor neural activity (pole tests and grip strength tests) [5]: No motor neural activity was influenced | number of osteoblasts [5]: significantly decreased | number of osteoclasts [5]: unchanged | sensory innervations in the vertebrae [5]: decreased | serum CTX level [5]: unchanged | serum osteocalcin level [5]: significantly decreased
